# Patent publication US20140221206A1, “HERBICIDAL COMPOSITION COMPRISING POLYMERIC MICROPARTICLES CONTAINING A HERBICIDE” (SYNGENTA LIMITED, priority 2011, published 2014)
# Test system: AVEFA, LOLMU, ALOMY, SETVI
# Assay: Assay 3—Glasshouse assay for pinoxaden antagonism (grass species)
# Conditions: used with Axial (pinoxaden) + Adigor adjuvant
# Experimental: A suitable glasshouse assay/test, to determine whether or not the “first herbicide”, when in a salt-free form and when not contained within polymeric microparticles, antagonises the herbicidal activity of pinoxaden, is as follows.
# The troughs are watered appropriately and are not supplied with additional nutrients throughout the course of the test. […] The pinoxaden is typically used in a commercial formulation applied with recommended tank-mix adjuvants.
# Crop injury (e.g. to wheat) is recorded at both 7 and 14-16 days after application; weed efficacy is only recorded at 14-16 days after application. A visual, 0-100% assessment scale is used, where 0%=no visible effects and 100%=complete plant destruction.
# For example, dicamba can be applied at ca. 240 g/ha (or alternatively at from 100 to 140, e.g. ca. 120, g/ha), measured as the free acid; MCPA and/or 2,4-D can be applied at ca. 500 g/ha, measured as the free acid.
# Alternatively, application rates may be identified from journal, book and/or patent publications for the specific active ingredient under test.
# Antagonism of pinoxaden may then be determined by the application of Colby's formula:
# (Observed 1+Observed 2)−((Observed 1×Observed 2)/100),
# Where observed values are smaller than the calculated expected value, antagonism is deemed to have occurred.
row,Compound,antagonism of pinoxaden grass-herbicidal activity (in words)
1,"COc1c(Cl)ccc(Cl)c1C(=O)O [dicamba acid, 3,6-dichloro-2-methoxybenzoic acid]","some reductions in pinoxaden herbicidal activity on the grassy weed species AVEFA, ALOMY and LOLMU"
2,"O=C(O)COc1ccc(Cl)cc1Cl [2,4-D acid, (2,4-dichlorophenoxy)acetic acid]","some reductions in pinoxaden herbicidal activity on the grassy weed species AVEFA, ALOMY, SETVI and LOLMU"
3,"Cc1cc(Cl)ccc1OCC(=O)O [MCPA acid, (4-chloro-2-methylphenoxy)acetic acid]","some reductions in pinoxaden herbicidal activity on the grassy weed species AVEFA, ALOMY and LOLMU"
